pIC50: −log10 of the molar value.

In one experiment the target is T1, GCN2 (Mus musculus, UniProt Q9QZ05).
T1 construct: endogenous in cells; host or cells: Neuro 2a (N2a)
T1 sequence (Q9QZ05 whole entry): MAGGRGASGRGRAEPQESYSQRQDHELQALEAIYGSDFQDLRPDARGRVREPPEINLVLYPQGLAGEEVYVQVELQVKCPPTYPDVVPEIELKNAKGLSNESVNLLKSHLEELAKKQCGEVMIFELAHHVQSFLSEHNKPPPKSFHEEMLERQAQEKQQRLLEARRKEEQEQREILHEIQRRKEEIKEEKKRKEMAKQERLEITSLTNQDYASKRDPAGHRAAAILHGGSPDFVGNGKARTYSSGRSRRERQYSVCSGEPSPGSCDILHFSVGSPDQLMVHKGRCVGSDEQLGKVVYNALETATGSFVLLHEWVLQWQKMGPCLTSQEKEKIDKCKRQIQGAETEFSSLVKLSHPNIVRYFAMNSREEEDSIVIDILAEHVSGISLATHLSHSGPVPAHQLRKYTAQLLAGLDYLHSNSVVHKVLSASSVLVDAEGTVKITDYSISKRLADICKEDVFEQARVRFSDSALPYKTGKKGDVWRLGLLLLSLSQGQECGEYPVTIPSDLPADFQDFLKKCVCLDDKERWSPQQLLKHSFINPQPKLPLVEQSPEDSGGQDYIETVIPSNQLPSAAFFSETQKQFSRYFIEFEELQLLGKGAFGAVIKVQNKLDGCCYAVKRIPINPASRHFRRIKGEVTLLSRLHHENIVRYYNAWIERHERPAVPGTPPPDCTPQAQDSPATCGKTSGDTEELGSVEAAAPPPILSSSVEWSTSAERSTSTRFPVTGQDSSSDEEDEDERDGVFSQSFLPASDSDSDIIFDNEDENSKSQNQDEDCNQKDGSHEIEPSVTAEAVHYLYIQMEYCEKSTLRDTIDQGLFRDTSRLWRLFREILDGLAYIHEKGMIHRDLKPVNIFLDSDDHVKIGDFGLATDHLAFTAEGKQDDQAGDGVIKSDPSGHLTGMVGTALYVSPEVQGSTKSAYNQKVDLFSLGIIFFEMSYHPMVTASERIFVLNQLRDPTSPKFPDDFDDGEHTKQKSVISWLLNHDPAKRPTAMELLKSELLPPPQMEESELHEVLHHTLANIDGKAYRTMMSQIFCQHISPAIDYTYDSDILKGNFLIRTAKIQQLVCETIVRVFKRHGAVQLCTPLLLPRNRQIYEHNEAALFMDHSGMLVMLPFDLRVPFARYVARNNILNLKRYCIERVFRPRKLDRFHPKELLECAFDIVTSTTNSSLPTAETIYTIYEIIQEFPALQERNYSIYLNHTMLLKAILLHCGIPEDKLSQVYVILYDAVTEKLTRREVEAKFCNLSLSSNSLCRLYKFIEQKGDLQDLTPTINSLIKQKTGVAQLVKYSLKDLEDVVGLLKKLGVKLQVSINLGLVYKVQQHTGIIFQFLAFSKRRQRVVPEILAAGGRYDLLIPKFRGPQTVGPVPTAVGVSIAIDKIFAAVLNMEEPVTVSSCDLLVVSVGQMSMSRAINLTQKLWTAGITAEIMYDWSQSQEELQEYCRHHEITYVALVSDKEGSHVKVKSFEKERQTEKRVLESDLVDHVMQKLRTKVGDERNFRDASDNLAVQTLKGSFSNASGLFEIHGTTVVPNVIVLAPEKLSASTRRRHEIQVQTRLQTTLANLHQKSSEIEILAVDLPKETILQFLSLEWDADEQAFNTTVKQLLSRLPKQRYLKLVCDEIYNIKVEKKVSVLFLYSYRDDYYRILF
Briefly: GCN2 inhibition cell-based assay (P-GCN2 Western blot in Neuro 2a cells). To be noted: amino acid deprived media (DMEM lacking L-cysteine and methionine), 3 hours. The procedure:
Neuro 2a cells (N2a) were maintained at 37° C. and 5% CO2 in DMEM/F12 medium (Fisher Scientific) supplemented with 10% fetal bovine serum and 1% penicillin-streptomycin (complete medium). 300,000 cells/well were seeded in flat bottom 6 well plates 48 hours before treatment with the compounds.
Testing compounds were prepared at different concentrations ranging from 10 μM to 0.1 nM on DMEM medium lacking L-cysteine and methionine (DMEM-CM) (Gibco) and supplemented with 1% penicillin-streptomycin. Complete medium was used as control of non-stressed condition. After 48 hours, the medium was removed from each well and 2 mL per well of each treatment was added. Cells were treated for 3 hours at 37° C. and 5% CO2.
After the incubation time, each well was washed with sterile 1×PBS and then 100 μL of ice-cold lysis buffer supplemented with phosphatase and protease inhibitors was added. Lysates were transferred to 1.5 mL tubes and sonicated for 3 min, and total protein amounts were quantified using BCA assay (e.g., BCA Protein Assay Kit; Pierce) according to manufacturer instructions. Equal amount of proteins was loaded on SDS-PAGE gels for electrophoresis and then transferred onto 0.2 µm filter pore PVDF membranes.
Membranes were then blocked in blocking buffer containing 3% BSA/0.1% Tween/1×Tris-buffered saline (TBS) for 1 hour and then incubated overnight at 4° C. with agitation with anti-pGCN2 primary antibody (Abcam ab-75836), diluted 1:1,000 in blocking buffer. […] (Sigma Aldrich) was used as a loading control.
Membranes were then incubated with the corresponding secondary antibody to detect immune-reactive bands using enhanced chemiluminescence (e.g., ECL Western Blotting Substrate Pierce).
Images were acquired (e.g., using Chemidoc™ equipment) and quantitated by densitometry using ImageJ software. IC50 values were determined from a concentration-response curve using GraphPad prism software.
IC50 values from P-GCN2 inhibition assay after induction with amino acid deprived media in the presence of different concentrations of test compounds are shown in Table 2. For IC50 values: +++ refers to <10 nM of test compound; ++ refers to 10 nM to 100 nM of test compound; + refers to 100 nM to 1,000 nM of test compound and − refers to >1,000 nM of test compound.
Under GCN2-mediated stress conditions, resulting from an amino acid deprived medium, GCN2 is generally phosphorylated. Accordingly, inhibition of GCN2 phosphorylation as a result of the test compound indicates inhibition of the GCN2 pathway.
On the technique in general: A western blot detects proteins with antibodies after separation by electrophoresis.
For the molecule `Nc1ncc2ccc(-c3c(F)ccc(NS(=O)(=O)c4cc(Cl)ccc4Cl)c3F)cc2n1` [Compound 5], the pIC50 – broadly, −log10 of the IC50, conventionally taken in molar units – was < 6.00.
Still for that read-out and setting: the result for `COc1ncc(Cl)cc1S(=O)(=O)Nc1ccc(F)c(-c2ccc3cnc(N)nc3c2)c1F` [Compound 6] reads < 6.00; that for `COc1ncc(Cl)cc1-c1nnc(-c2ccc(F)c(C#Cc3cnc(N)nc3)c2F)o1` [Compound 7], < 6.00.
The same measure, in the same setting: the result for `Nc1ncc2cc(-c3c(F)ccc(NS(=O)(=O)c4cc(F)cc(C(F)(F)F)c4)c3F)ccc2n1` [Compound 123] reads < 6.00.
Still for that read-out and setting: next, `Cc1cc(C)cc(S(=O)(=O)Nc2ccc(F)c(-c3ccc4nc(N)ncc4c3)c2F)c1` [Compound 113]: > 8.00; `O=S(=O)(Nc1ccc(F)c(-c2ccc3nc(NCCO)ncc3c2)c1F)c1cc(Cl)cc(CO)c1Cl` [Compound 134]: > 8.00.
As for `O=S(=O)(Nc1ccc(F)c(-c2ccc3nc(NC4CCOC4)ncc3c2)c1F)c1cc(Cl)ccc1Cl` (stereo not drawn) [Compound 168], the negative-log IC50 (pIC50) was > 8.00.
Still for that read-out and setting: next, `COc1ncc(Cl)cc1S(=O)(=O)Nc1ccc(F)c(-c2ccc3nc(N(C)C)ncc3c2)c1F` [Compound 155]: 6.00 to 7.00; `COc1ncc(Cl)cc1S(=O)(=O)Nc1ccc(F)c(-c2ccc3nc(N4CCCCC4)ncc3c2)c1F` [Compound 156]: 7.00 to 8.00.
Same read-out and setting: next, `Nc1ccc2cc(-c3c(F)ccc(NS(=O)(=O)c4cc(Cl)ccc4Cl)c3F)ccc2n1` [Compound 107]: < 6.00.
The same measure, in the same setting: the result for `Nc1ncc2cc(-c3c(F)ccc(NS(=O)(=O)c4cccnc4)c3F)ccc2n1` [Compound 130] reads < 6.00; that for `COc1ncc(Cl)cc1S(=O)(=O)Nc1ccc(F)c(-c2ccc(-c3cnc(N)nc3)nc2)c1F` [Compound 4], < 6.00; that for `COc1ncc(Cl)cc1C(=O)Nc1ccc(F)c(C#Cc2cnc(N)nc2)c1F` [Compound 3], < 6.00.
Consider `Nc1ncc2cc(-c3cc(F)cc(NS(=O)(=O)c4cc(Cl)ccc4Cl)c3)ccc2n1` [Compound 14], for which the pIC50 was < 6.00.
The same measure, in the same setting: the result for `COc1ncc(Cl)cc1S(=O)(=O)Nc1ccc(F)c(-c2cccc3nc(N)ncc23)c1F` [Compound 45] reads < 6.00; that for `CC(=O)Nc1ncc2cc(-c3c(F)ccc(NS(=O)(=O)c4cc(Cl)ccc4Cl)c3F)ccc2n1` [Compound 106], > 8.00.
As to `COc1ncc(Cl)cc1S(=O)(=O)Nc1ccc(F)c(-c2ccc3nc(N)ccc3c2)c1F` [Compound 20], the negative-log IC50 (pIC50) is < 6.00.
The same measure, in the same setting: the result for `COc1ncc(Cl)cc1S(=O)(=O)Nc1ccc(F)c(-c2ccc3nc(N[C@H]4CC[C@@H](O)CC4)ncc3c2)c1F` [Compound 129] reads > 8.00; that for `Cc1ccc(F)cc1S(=O)(=O)Nc1ccc(F)c(-c2ccc3nc(N)ncc3c2)c1F` [Compound 133], 7.00 to 8.00.
For `Cc1ccc(S(=O)(=O)Nc2ccc(F)c(-c3ccc4nc(N)ncc4c3)c2F)cc1Cl` [Compound 147], the negative logarithm of the IC50 (pIC50) was 6.00 to 7.00.
On the same count and under the same terms, the result for `Nc1ncc2cc(-c3c(F)ccc(NS(=O)(=O)c4ccc(Cl)cc4C(F)(F)F)c3F)ccc2n1` [Compound 137] reads 7.00 to 8.00.
On the same count and under the same terms, the result for `Nc1ncc2cc(-c3cccc(NS(=O)(=O)c4cc(Cl)ccc4Cl)c3F)ccc2n1` [Compound 13] reads > 8.00; that for `Nc1ncc2cc(-c3c(F)ccc(NS(=O)(=O)c4cccc5cnccc45)c3F)ccc2n1` [Compound 64], > 8.00; that for `Cc1cc(S(=O)(=O)Nc2ccc(F)c(-c3ccc4nc(N)ncc4c3)c2F)ccc1F` [Compound 160], < 6.00.
On the same count and under the same terms, next, `Nc1ncc2cc(-c3c(F)ccc(NS(=O)(=O)c4cccc(C(F)(F)F)c4)c3F)ccc2n1` [Compound 145]: < 6.00.
Turning to `CCc1ccc(OC)c(S(=O)(=O)Nc2ccc(F)c(-c3ccc4nc(N)ncc4c3)c2F)c1` [Compound 120], the negative-log IC50 (pIC50) is < 6.00.
On the same count and under the same terms, the result for `Nc1ncc2cc(-c3ccc(F)c(NS(=O)(=O)c4cc(Cl)ccc4Cl)c3F)ccc2n1` [Compound 12] reads < 6.00.
Still for that read-out and setting: the result for `Nc1ncc2cc(-c3c(F)ccc(N[S+]([O-])c4ccc(Cl)cc4Cl)c3F)ccc2n1` (stereo not drawn) [Compound 15] reads 6.00 to 7.00.
Same read-out and setting: next, `Cc1cccc(S(=O)(=O)Nc2ccc(F)c(-c3ccc4nc(N)ncc4c3)c2F)c1` [Compound 125]: < 6.00; `COc1ncc(Cl)cc1S(=O)(=O)Nc1ccc(F)c(-c2ccc3nc(N)ncc3c2)c1` [Compound 19]: 6.00 to 7.00; `COc1ncc(Cl)cc1S(=O)(=O)Nc1ccc(F)c(-c2ccc3nc(NC(CO)CO)ncc3c2)c1F` [Compound 153]: 7.00 to 8.00.
`Nc1ncc2cc(-c3c(F)ccc(NS(=O)(=O)c4cc(Cl)c(Cl)cc4Cl)c3F)ccc2n1` [Compound 150] had a pIC50 of 7.00 to 8.00.
The same measure, in the same setting: the result for `Nc1ncc2cc(-c3cccc4c3ccn4S(=O)(=O)c3cc(Cl)ccc3Cl)ccc2n1` [Compound 76] reads < 6.00.
Still for that read-out and setting: next, `Nc1ncc2cc(-c3c(F)ccc(NS(=O)(=O)c4cccc(F)c4)c3F)ccc2n1` [Compound 116]: < 6.00.

A further experiment has as its system CHOP (DDIT3) reporter. The experiment in a line: GCN2-induction of CHOP and apoptosis in 3T3 fibroblasts with CHOP (DDIT3) reporter construct. It is filed as cell-based, murine. Particulars: murine 3T3 WT and GCN2 knockout CHOP reporter cells, stress inducer alone. The method, then:
The CHOP construct comprised the […] (UTR) of mouse DDIT3 mRNA fused to a sequence encoding the fluorescent protein mCherry.
Cells were seeded at 5,000 cells per well in flat bottom 96-well plates in 100 μL DMEM low glucose media without phenol red, and supplemented with 10% FBS and 2 mM glutamine. After 24 hours, the exemplary compounds, and either tunicamycin, halofuginone, or histidinol, were added together with 100 nM of fluorescent apoptosis stain (YO-PRO™-1 Iodide; Thermo Fisher) to detect apoptotic cells. Cells were placed in a live-cell imaging and analysis platform (IncuCyte ZOOM®; Essenbio) set up in a humidified incubator at 37° C. and the plates were scanned every 4 hours for up 120 hours, at 10× magnification, to determine cell confluence and cell death. Experiments were performed in duplicate with 3 images collected per well, and analyzed using live-cell imaging and analysis software (IncuCyte ZOOM® 2018A software; Essenbio).
Consider `N[C@H](CO)Cc1c[nH]cn1` [histidinol, L-histidinol, reference compound], for which the “induction of CHOP (mCherry)” value is “induction of CHOP (mCherry) could be observed in the WT cells, but not in the GCN2 knockout cells”.
Take `O=C(CC1NCCCC1O)Cn1cnc2cc(Br)c(Cl)cc2c1=O` (stereo not drawn) [halofuginone, reference compound]: the “induction of CHOP (mCherry)” value was “induction of CHOP (mCherry) could be observed in the WT cells, but not in the GCN2 knockout cells”.
For the molecule tunicamycin [reference compound], the “induction of CHOP (mCherry)” value is “significant induction of CHOP in both the WT and GCN2 knockout cell lines”.

For another experiment, the target named is GCN2 (Homo sapiens, UniProt Q9P2K8). Briefly: GCN2 enzyme inhibition assay (Reaction Biology EIF2AK4/GCN2 kinase assay). It is filed as biochemical. On the set-up: purchased Reaction Biology Corp. Particulars: human GCN2 enzyme activity, 10 μM ATP, 20 μM peptide substrate. The method, then: In order to validate the above results, human GCN2 enzyme activity was measured in Reaction Biology Corp (EIF2AK4/GCN2 kinase assay). Compounds were tested in 5-dose IC50 mode for non-active compounds and 10-dose IC50 mode for active compounds with 3-fold serial dilution starting at 30 μM and 0.1 μM respectively. Control compound Staurosporine was tested in 10-dose IC50 mode with 4-fold serial dilution starting at 20 μM. Reactions were carried out at 10 μM ATP using 20 μM peptide substrate [GRSRSRSRSR]. For IC50 values: +++ refers to <10 nM of test compound; ++ refers to 10 nM to 100 nM of test compound; + refers to 100 nM to 1,000 nM of test compound and − refers to >1,000 nM of test compound.
Chain of GCN2 (Homo sapiens, UniProt Q9P2K8) (Q9P2K8 whole entry): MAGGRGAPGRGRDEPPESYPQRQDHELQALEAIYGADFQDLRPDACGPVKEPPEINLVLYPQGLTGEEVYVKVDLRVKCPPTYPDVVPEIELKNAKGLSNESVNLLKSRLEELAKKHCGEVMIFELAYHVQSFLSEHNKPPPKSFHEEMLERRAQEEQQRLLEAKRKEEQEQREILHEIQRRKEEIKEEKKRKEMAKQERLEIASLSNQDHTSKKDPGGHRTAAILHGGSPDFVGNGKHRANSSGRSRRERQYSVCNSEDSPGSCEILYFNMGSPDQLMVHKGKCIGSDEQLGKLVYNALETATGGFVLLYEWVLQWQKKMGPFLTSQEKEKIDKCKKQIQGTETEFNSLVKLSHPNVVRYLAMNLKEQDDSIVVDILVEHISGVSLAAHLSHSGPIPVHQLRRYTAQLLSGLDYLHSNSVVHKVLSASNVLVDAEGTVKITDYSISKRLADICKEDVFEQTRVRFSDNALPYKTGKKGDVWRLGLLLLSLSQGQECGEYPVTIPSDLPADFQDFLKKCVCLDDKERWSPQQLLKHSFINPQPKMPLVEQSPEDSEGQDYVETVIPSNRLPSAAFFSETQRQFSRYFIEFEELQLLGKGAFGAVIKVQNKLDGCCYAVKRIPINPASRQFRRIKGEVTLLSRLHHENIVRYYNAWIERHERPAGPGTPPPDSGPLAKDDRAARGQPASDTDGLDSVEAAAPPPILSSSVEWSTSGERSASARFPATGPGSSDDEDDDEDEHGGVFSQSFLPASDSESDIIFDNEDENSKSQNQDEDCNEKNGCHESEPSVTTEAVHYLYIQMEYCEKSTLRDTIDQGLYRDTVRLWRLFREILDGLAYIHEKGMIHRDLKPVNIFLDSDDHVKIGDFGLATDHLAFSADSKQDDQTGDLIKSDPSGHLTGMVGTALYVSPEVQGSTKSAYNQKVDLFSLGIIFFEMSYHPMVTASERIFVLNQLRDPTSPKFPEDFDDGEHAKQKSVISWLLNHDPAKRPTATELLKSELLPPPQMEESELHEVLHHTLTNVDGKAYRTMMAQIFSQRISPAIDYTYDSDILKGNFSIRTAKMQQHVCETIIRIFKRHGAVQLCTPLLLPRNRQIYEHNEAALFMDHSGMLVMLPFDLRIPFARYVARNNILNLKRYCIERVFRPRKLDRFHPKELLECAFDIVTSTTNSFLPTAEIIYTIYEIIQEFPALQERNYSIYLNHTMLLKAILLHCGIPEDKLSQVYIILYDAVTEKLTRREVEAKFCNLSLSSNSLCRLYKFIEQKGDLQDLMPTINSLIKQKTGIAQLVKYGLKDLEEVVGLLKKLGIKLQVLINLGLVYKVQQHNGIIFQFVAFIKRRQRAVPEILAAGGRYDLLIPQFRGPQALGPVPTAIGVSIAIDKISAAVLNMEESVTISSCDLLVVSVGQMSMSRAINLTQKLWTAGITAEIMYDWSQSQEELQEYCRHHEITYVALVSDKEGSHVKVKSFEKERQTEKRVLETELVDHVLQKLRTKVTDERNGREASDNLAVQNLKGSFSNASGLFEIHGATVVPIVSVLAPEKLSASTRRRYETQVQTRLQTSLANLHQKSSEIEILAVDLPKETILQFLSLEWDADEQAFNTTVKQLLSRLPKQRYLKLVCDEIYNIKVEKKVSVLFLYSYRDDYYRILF
For `Nc1ncc2ccc(-c3c(F)ccc(NS(=O)(=O)c4cc(Cl)ccc4Cl)c3F)cc2n1` [Compound 5], the negative-log IC50 (pIC50) was < 6.00.
As to `COc1ncc(Cl)cc1S(=O)(=O)Nc1ccc(F)c(-c2ccc3cnc(N)nc3c2)c1F` [Compound 6], the pIC50 was < 6.00.
Same read-out and setting: the result for `COc1ncc(Cl)cc1-c1nnc(-c2ccc(F)c(C#Cc3cnc(N)nc3)c2F)o1` [Compound 7] reads < 6.00; that for `COc1ncc(Cl)cc1S(=O)(=O)Nc1ccc(F)c(-c2ccc(-c3cnc(N)nc3)nc2)c1F` [Compound 4], 6.00 to 7.00.
Same read-out and setting: next, `COc1ncc(Cl)cc1C(=O)Nc1ccc(F)c(C#Cc2cnc(N)nc2)c1F` [Compound 3]: < 6.00.
